One data set has as its target T1, rat calcitonin receptor (Rattus norvegicus, UniProt P32214).
T1 construct: expressed in transfected cells; host or cells: BHK tk'ts 13 (transient, FuGENE 6), membranes
T1 sequence (P32214 25-479 isoform P32214-2 limits assumed): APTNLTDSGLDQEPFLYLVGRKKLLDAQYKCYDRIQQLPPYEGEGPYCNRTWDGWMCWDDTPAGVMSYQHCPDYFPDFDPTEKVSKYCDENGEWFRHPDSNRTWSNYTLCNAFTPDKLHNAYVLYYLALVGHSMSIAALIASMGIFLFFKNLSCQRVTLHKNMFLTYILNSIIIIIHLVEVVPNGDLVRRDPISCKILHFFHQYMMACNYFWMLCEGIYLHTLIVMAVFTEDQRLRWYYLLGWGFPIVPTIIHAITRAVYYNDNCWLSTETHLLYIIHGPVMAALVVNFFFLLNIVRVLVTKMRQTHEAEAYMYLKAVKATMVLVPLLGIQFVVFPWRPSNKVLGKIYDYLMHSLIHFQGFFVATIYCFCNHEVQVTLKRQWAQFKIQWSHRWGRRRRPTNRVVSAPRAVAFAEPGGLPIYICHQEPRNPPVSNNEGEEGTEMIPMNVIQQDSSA
As to the kind of experiment: ASSAY (VIII) binding to the rat calcitonin receptor. The settings on record: Table 7, read-out: rCTR bind IC50. Summed up:
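Cell membranes for binding came from BHK tk′ts 13 cells harvested approximately 48 hours after transient transfection with the rat receptor.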

Data set [1] can be described thus: ASSAY (IV) determination of solubility. It is filed as physicochemical. Put shortly: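 Samples of polypeptide, prepared from a water stock at […] and diluted 1:1 into 100 mM buffers spanning pH 3.0 to 8.0, stood 18 hours at room temperature. Polypeptide concentration was then determined by UPLC following centrifugation.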
For data set [2], the target named is T2, human amylin receptor (membranes from Amylin 3(a)/CRE-luc cells) (Homo sapiens, UniProt O60896+P30988).
T2 construct: expressed in transfected cells
T2 sequence (P30988 25-474): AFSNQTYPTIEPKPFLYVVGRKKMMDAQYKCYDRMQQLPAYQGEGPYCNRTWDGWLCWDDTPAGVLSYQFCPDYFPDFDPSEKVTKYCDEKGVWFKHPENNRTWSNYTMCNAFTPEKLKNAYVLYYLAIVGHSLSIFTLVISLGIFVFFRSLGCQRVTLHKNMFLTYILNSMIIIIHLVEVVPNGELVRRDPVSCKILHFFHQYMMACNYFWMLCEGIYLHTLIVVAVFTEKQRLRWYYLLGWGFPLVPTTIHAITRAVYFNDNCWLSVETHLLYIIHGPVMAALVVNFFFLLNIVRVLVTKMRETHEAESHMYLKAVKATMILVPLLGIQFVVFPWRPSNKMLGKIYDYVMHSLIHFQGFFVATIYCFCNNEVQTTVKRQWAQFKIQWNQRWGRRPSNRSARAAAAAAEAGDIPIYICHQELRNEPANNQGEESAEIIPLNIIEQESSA
T2 sequence (O60896 24-148 partner): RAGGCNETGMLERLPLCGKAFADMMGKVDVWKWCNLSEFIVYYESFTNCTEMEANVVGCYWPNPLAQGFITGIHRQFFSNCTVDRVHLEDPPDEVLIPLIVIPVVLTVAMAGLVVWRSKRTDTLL
As to the kind of experiment: ASSAY (V) binding to the human amylin receptor (SPA, 125I-rat amylin).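 Further: competition binding of cell membranes (35 ng/µL) mixed with SPA beads in 384-well plates at 40 µL total volume, read by scintillation counting.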

The next data set concerns Sprague Dawley (SD) rats. As to the kind of experiment: ASSAY (I) efficacy testing on appetite (food intake) using an ad libitum fed rat model. The settings on record: rat. It is filed as in vivo. Summed up: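 Individual food consumption was logged each hour up to 7 h and again at 24 h, occasionally 48 h, with Grubbs-test outliers removed. Each 200–250 g Sprague Dawley rat, free-feeding in its home cage under reversed lighting, received a single ip, po or sc dose of 0.01–3 mg/kg at lights-off, alongside a vehicle group.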

[3] abbreviates: bistrispropane buffer, pH 6.5, read-out: Solubility pH 6.5 Concentration.
The mark [4] stands for this setting: bistrispropane buffer, pH 7.5, read-out: Solubility pH 7.5 Concentration.
The mark [5] stands for this setting: bistrispropane buffer, pH 6.0, read-out: Solubility pH 6.0 Concentration.
Where [6] appears, read: bistrispropane buffer, pH 7.0, read-out: Solubility pH 7.0 Concentration.
The mark [7] stands for this setting: bistrispropane buffer, pH 8.0, read-out: Solubility pH 8.0 Concentration.
Setting [8] is: glycylglycine buffer, pH 3.0, read-out: Solubility pH 3.0 Concentration.
Where [9] appears, read: glycylglycine buffer, pH 4.0, read-out: Solubility pH 4.0 Concentration.
[10] abbreviates: glycylglycine buffer, pH 5.0, read-out: Solubility pH 5.0 Concentration.
The mark [11] stands for this setting: Table 5, selectivity, hCTR bind IC50 / hAmylin-R bind IC50.
Where [12] appears, read: Table 5a, selectivity, hCTR bind IC50 / hAmylin-R bind IC50.
[13] abbreviates: Table 5b, selectivity, hCTR bind IC50 / hAmylin-R bind IC50.
Setting [14] is: Table 5c, selectivity, hCTR bind IC50 / hAmylin-R bind IC50.
Where [15] appears, read: Table 7, human binding selectivity, included for comparison.
Where [16] appears, read: Table 7a (preferred compounds), human binding selectivity, included for comparison.
Setting [17] is: ratio of human calcitonin receptor binding IC50 to human amylin receptor binding IC50.

The structures appear in SMILES notation. pIC50: −log10 of the molar value. ≈ marks a conversion by molar mass, not a printed value. Read-outs that look alike come from different tables or passages of the source. Numbered stars: 1 amine (or outer) side, 2 acyl side, 3 side chain; on linkers, the order of the positions; unused ones are H or OH. Bridge positions count the residues as written; N and C are the ends. Side chains are listed from the residue outwards. Peptide text beside a SMILES is read from it. * marks the point of attachment. C20 diacid = O=C(O)CCCCCCCCCCCCCCCCCCC(=O)*; γGlu = O=C(O)[C@H](CCC(=O)[*:2])N[*:1]

Take `CC[C@H](C)[C@H](NC(=O)[C@H](C)NC(=O)CNC(=O)[C@H](Cc1ccccc1)NC(=O)[C@H](CC(N)=O)NC(=O)[C@@H]1CCCN1C(=O)[C@H](CO)NC(=O)[C@H](CO)NC(=O)[C@H](Cc1c[nH]cn1)NC(=O)[C@H](CCCNC(=N)N)NC(=O)[C@H](CC(C)C)NC(=O)[C@H](Cc1ccccc1)NC(=O)[C@H](CC(N)=O)NC(=O)[C@H](C)NC(=O)[C@H](CC(C)C)NC(=O)[C@H](CCCNC(=N)N)NC(=O)[C@H](CCC(N)=O)NC(=O)[C@@H](NC(=O)[C@H](C)NC(=O)[C@@H]1CSSC[C@H](NC(=O)[C@H](CCCCN)NC(=O)CC[C@H](NC(=O)CCCCCCCCCCCCCCCCCCC(=O)O)C(=O)O)C(=O)N[C@@H](CC(N)=O)C(=O)N[C@@H]([C@@H](C)O)C(=O)N[C@@H](C)C(=O)N[C@@H]([C@@H](C)O)C(=O)N1)[C@@H](C)O)C(=O)N1CCC[C@H]1C(=O)N[C@@H](CO)C(=O)N[C@@H](CO)C(=O)N[C@H](C(=O)N[C@@H](CC(N)=O)C(=O)N[C@H](C(=O)NCC(=O)N[C@@H](Cc1c[nH]cn1)C(=O)N[C@@H](CC(N)=O)C(=O)N[C@H](C(=O)N[C@@H](Cc1ccc(O)cc1)C(N)=O)[C@@H](C)O)C(C)C)[C@@H](C)O` [Example 40]: the negative-log IC50 (pIC50) (usually the IC50 on a negative log10 scale, so that one unit is a factor of ten) at rat calcitonin receptor was 7.16. Also, the solubility at 18 h in data set [1] (setting [3]), in data set [1] (setting [4]), in data set [1] (setting [5]), in data set [1] (setting [6]), in data set [1] (setting [7]) and in data set [1] (setting [8]) was at least 200 µM each time. Further, the solubility at 18 h in data set [1] (setting [9]) and in data set [1] (setting [10]) was at least 200 µM throughout. For the same compound, the “Ratio hCT/hAmylin binding” value in data set [2] (setting [11]), in data set [2] (setting [12]), in data set [2] (setting [13]), in data set [2] (setting [14]), in data set [2] (setting [15]) and in data set [2] (setting [16]) was 31.1 each time. In addition, in data set [2] (setting [17]), the “Ratio hCT/hAmylin binding” value is 31.1. Besides, the “Food intake reduction 0-24 h 30 nmol/kg (%)” value in the data set on Sprague Dawley (SD) rats (0-24 h) is given as 51%. In addition, the “Food intake reduction 24-48 h 30 nmol/kg (%)” value in the data set with Sprague Dawley (SD) rats (24-48 h) is listed as 26%.
Take `CC[C@H](C)[C@H](NC(=O)[C@H](C)NC(=O)CNC(=O)[C@H](Cc1ccccc1)NC(=O)[C@H](CC(N)=O)NC(=O)[C@@H]1CCCN1C(=O)[C@H](CO)NC(=O)[C@H](CO)NC(=O)[C@H](Cc1c[nH]cn1)NC(=O)[C@H](CCCNC(=N)N)NC(=O)[C@H](CC(C)C)NC(=O)[C@H](Cc1ccccc1)NC(=O)[C@H](CC(=O)O)NC(=O)[C@H](C)NC(=O)[C@H](CC(C)C)NC(=O)[C@H](CCCNC(=N)N)NC(=O)[C@H](CCC(N)=O)NC(=O)[C@@H](NC(=O)[C@H](C)NC(=O)[C@@H]1CSSC[C@H](NC(=O)[C@@H](N)CCCCNC(=O)CC[C@H](NC(=O)CC[C@H](NC(=O)CCCCCCCCCCCCCCCCCCC(=O)O)C(=O)O)C(=O)O)C(=O)N[C@@H](CC(N)=O)C(=O)N[C@@H]([C@@H](C)O)C(=O)N[C@@H](C)C(=O)N[C@@H]([C@@H](C)O)C(=O)N1)[C@@H](C)O)C(=O)N1CCC[C@H]1C(=O)N[C@@H](CO)C(=O)N[C@@H](CO)C(=O)N[C@H](C(=O)N[C@@H](CC(N)=O)C(=O)N[C@H](C(=O)NCC(=O)N1CCC[C@H]1C(=O)N[C@@H](CCC(=O)O)C(=O)N[C@H](C(=O)N[C@@H](Cc1ccc(O)cc1)C(N)=O)[C@@H](C)O)C(C)C)[C@@H](C)O` [Example 122] (H-K([γGlu-γGlu-C20 diacid])CNTATCATQRLADFLRHSSPNFGAIPSSTNVGPETY-NH2; disulfide 2-7 (inferred); N-terminus assumed): the negative-log IC50 (pIC50) at rat calcitonin receptor is 7.50. The solubility at 18 h in data set [1] (setting [3]), in data set [1] (setting [4]), in data set [1] (setting [5]), in data set [1] (setting [6]), in data set [1] (setting [7]) and in data set [1] (setting [8]) was at least 200 µM each time. In addition, the solubility at 18 h in data set [1] (setting [9]) and in data set [1] (setting [10]) was at least 200 µM throughout. In addition, the “Ratio hCT/hAmylin binding” value in data set [2] (setting [11]), in data set [2] (setting [12]), in data set [2] (setting [13]), in data set [2] (setting [14]), in data set [2] (setting [15]) and in data set [2] (setting [16]) was 49.8 throughout. The “Ratio hCT/hAmylin binding” value in data set [2] (setting [17]) is reported as 49.8. Further, in the data set with Sprague Dawley (SD) rats (3 nmol/kg, 0-24 h), the “Food intake reduction 0-24 h 3 nmol/kg (%)” value is 50%. Further, the “Food intake reduction 24-48 h 3 nmol/kg (%)” value in the data set on Sprague Dawley (SD) rats (3 nmol/kg, 24-48 h) is listed as 50%.
In the case of `CC[C@H](C)[C@H](NC(=O)[C@H](C)NC(=O)CNC(=O)[C@H](Cc1ccccc1)NC(=O)[C@H](CC(N)=O)NC(=O)[C@@H]1CCCN1C(=O)[C@H](CO)NC(=O)[C@H](CO)NC(=O)[C@H](Cc1c[nH]cn1)NC(=O)[C@H](CCCNC(=N)N)NC(=O)[C@H](CC(C)C)NC(=O)[C@H](Cc1ccccc1)NC(=O)[C@H](CCC(=O)O)NC(=O)[C@H](C)NC(=O)[C@H](CC(C)C)NC(=O)[C@H](CCCNC(=N)N)NC(=O)[C@H](CCC(N)=O)NC(=O)[C@@H](NC(=O)[C@H](C)NC(=O)[C@@H]1CSSC[C@H](NC(=O)[C@@H](N)CCCCNC(=O)CC[C@H](NC(=O)CC[C@H](NC(=O)CCCCCCCCCCCCCCCCCCC(=O)O)C(=O)O)C(=O)O)C(=O)N[C@@H](CC(N)=O)C(=O)N[C@@H]([C@@H](C)O)C(=O)N[C@@H](C)C(=O)N[C@@H]([C@@H](C)O)C(=O)N1)[C@@H](C)O)C(=O)N1CCC[C@H]1C(=O)N[C@@H](CO)C(=O)N[C@@H](CO)C(=O)N[C@H](C(=O)N[C@@H](CC(N)=O)C(=O)N[C@H](C(=O)NCC(=O)N[C@@H](Cc1c[nH]cn1)C(=O)N[C@@H](CC(N)=O)C(=O)N[C@H](C(=O)N[C@@H](Cc1ccc(O)cc1)C(N)=O)[C@@H](C)O)C(C)C)[C@@H](C)O` [Example 87] (H-K([γGlu-γGlu-C20 diacid])CNTATCATQRLAEFLRHSSPNFGAIPSSTNVGHNTY-NH2; disulfide 2-7), the pIC50 at rat calcitonin receptor is 7.02; in data set [2] (Table 4, read-out: hAmylin-R bind IC50) it was 9.20. In addition, the solubility at 18 h is 144 µM (≈ 659 µg/mL) in data set [1] (setting [3]); at least 200 µM in data set [1] (setting [4]); 156 µM (≈ 714 µg/mL) in data set [1] (setting [5]); 146 µM (≈ 668 µg/mL) in data set [1] (setting [6]); at least 200 µM in data set [1] (setting [7]); at least 200 µM in data set [1] (setting [8]). Further, the solubility at 18 h in data set [1] (setting [9]) and in data set [1] (setting [10]) was at least 200 µM in each case. Moreover, the “Ratio hCT/hAmylin binding” value in data set [2] (setting [11]), in data set [2] (setting [12]), in data set [2] (setting [13]), in data set [2] (setting [14]), in data set [2] (setting [15]) and in data set [2] (setting [16]) was 35.6 each time. Besides, the “Ratio hCT/hAmylin binding” value in data set [2] (setting [17]) was found to be 35.6. For the same compound, the “Food intake reduction 0-24 h 30 nmol/kg (%)” value in the data set with Sprague Dawley (SD) rats (0-24 h) was determined as 29%. In addition, in the data set on Sprague Dawley (SD) rats (24-48 h), the “Food intake reduction 24-48 h 30 nmol/kg (%)” value was 20%.

The record behind these values is patent US9023789B2, “Amylin analogs and pharmaceutical compositions thereof” (Novo Nordisk A/S, priority 2012, dated 2015).
